Results reported in ChEMBL document CHEMBL1155947, “Discovery of a novel series of benzoic acid derivatives as potent and selective human beta3 adrenergic receptor agonists with good oral bioavailability. 3. Phenylethanolaminotetraline (PEAT) skeleton containing biphenyl or biphenyl ether moiety” (J Med Chem, 2008).

Columns and labels:
[1] = tested on: Canis familiaris; assay: Inhibition of carbachol-induced increase of intravesical pressure in Beagle dog OAB model at 32 ug/kg,; assay type: functional; conditions: Canis lupus familiaris
[2] = tested on: Canis familiaris; assay: Ratio of Cmax for drug to Cmax for 4-((7S)-7-{[(2R)-2-(3-Chlorophenyl)-2-hydroxyethyl]amino}-5,6,7,8-tetrahydro-2-naphthalenyl)benzoic acid hydrochloride in dog at 0.1 or 0.20 mg/kg, po by cassette dosing assay; assay type: ADME, organism-based, Canis lupus familiaris; parameters: dose 0.2 mg/kg, route oral; conditions: in vivo, 0.2 mg/kg
[3] = Cmax in dog at 0.2 mg/kg, po by cassette assay; assay type: ADME, organism-based, Canis lupus familiaris; parameters: dose 0.2 mg/kg, route oral; conditions: in vivo
[4] = biological target: Beta-3 adrenergic receptor (Homo sapiens, UniProt P13945); assay: Agonist activity at human cloned beta3 adrenergic receptor expressed in CHO cells assessed as cAMP accumulation; assay type: functional, cell-based
[5] = Protein binding in Beagle dog serum at 32 ug/kg, iv; assay type: ADME, organism-based, Canis lupus familiaris; conditions: 0.032 mg/kg, read-out: PB (converted)
[6] = biological target: Beta-2 adrenergic receptor (Homo sapiens, UniProt P07550); assay: Agonist activity at human beta2 adrenergic receptor expressed in CHO cells assessed as cAMP accumulation; assay type: functional, cell-based
[7] = tested on: Canis familiaris; assay: Ratio of AUC for drug to AUC for 4-((7S)-7-{[(2R)-2-(3-Chlorophenyl)-2-hydroxyethyl]amino}-5,6,7,8-tetrahydro-2-naphthalenyl)benzoic acid hydrochloride in dog at 0.1 or 0.20 mg/kg, po by cassette dosing assay; assay type: ADME, organism-based, Canis lupus familiaris; parameters: dose 0.2 mg/kg, route oral; conditions: in vivo, 0.2 mg/kg
[8] = Cmax in monkey at 0.32 mg/kg, po; assay type: ADME, organism-based, Macaca mulatta; parameters: dose 0.32 mg/kg, route oral; conditions: rhesus monkey, in vivo
[9] = Oral bioavailability in dog at 0.1 mg/kg by cassette assay; assay type: ADME, organism-based, Canis lupus familiaris; conditions: in vivo
[10] = Total clearance in rat at 0.50 mg/kg, iv by cassette assay; assay type: ADME, organism-based; parameters: dose 0.5 mg/kg, route intravenous; conditions: in vivo, 0.5 mg/kg
[11] = Total clearance in monkey at 0.32 mg/kg, iv by cassette assay; assay type: ADME, organism-based, Macaca mulatta; parameters: dose 0.32 mg/kg, route intravenous; conditions: rhesus monkey, in vivo
[12] = AUC (0 to 24 hrs) in monkey at 0.32 mg/kg, po; assay type: ADME, organism-based, Macaca mulatta; parameters: time < 24 hr, dose 0.32 mg/kg, route oral; conditions: rhesus monkey, plasma
[13] = Terminal half life in dog at 0.1 mg/kg, iv by cassette assay; assay type: ADME, organism-based, Canis lupus familiaris; parameters: dose 0.1 mg/kg, route intravenous; conditions: in vivo
[14] = Oral bioavailability in monkey at 0.32 mg/kg by cassette assay; assay type: ADME, organism-based, Macaca mulatta; conditions: rhesus monkey, in vivo
[15] = Terminal half life in rat at 0.50 mg/kg, iv by cassette assay; assay type: ADME, organism-based; parameters: dose 0.5 mg/kg, route intravenous; conditions: in vivo, 0.5 mg/kg
[16] = Selectivity for human beta3 adrenergic receptor over dog beta3 adrenergic receptor
[17] = AUC (0 to 24 hrs) in dog at 0.2 mg/kg, po by cassette assay; assay type: ADME, organism-based, Canis lupus familiaris; parameters: time < 24 hr, dose 0.2 mg/kg, route oral; conditions: plasma
[18] = biological target: Beta-1 adrenergic receptor (Homo sapiens, UniProt P08588)
Description: Agonist activity at human cloned beta-1 adrenergic receptor expressed in CHO cells assessed as cAMP accumulation

[19] = Cmax in rat at 0.5 mg/kg, po by cassette assay; assay type: ADME, organism-based; parameters: dose 0.5 mg/kg, route oral; conditions: in vivo
[20] = biological target: Beta-3 adrenergic receptor (Canis lupus familiaris, UniProt O02662); assay: Agonist activity at dog beta3 adrenergic receptor expressed in CHO cells assessed as cAMP accumulation; assay type: functional, cell-based
[21] = AUC (0 to 24 hrs) in rat at 0.5 mg/kg, po by cassette assay; assay type: ADME, organism-based; parameters: time < 24 hr, dose 0.5 mg/kg, route oral; conditions: plasma
[22] = species: Homo sapiens; assay: Ratio of EC50 for human cloned beta-1 adrenergic receptor to EC50 for human cloned beta3 adrenergic receptor
[23] = Terminal half life in monkey at 0.32 mg/kg, iv by cassette assay; assay type: ADME, organism-based, Macaca mulatta; parameters: dose 0.32 mg/kg, route intravenous; conditions: rhesus monkey, in vivo
[24] = Oral bioavailability in rat at 0.50 mg/kg by cassette assay; assay type: ADME, organism-based; conditions: in vivo, 0.5 mg/kg
[25] = Total clearance in dog at 0.1 mg/kg, iv by cassette assay; assay type: ADME, organism-based, Canis lupus familiaris; parameters: dose 0.1 mg/kg, route intravenous; conditions: in vivo
[26] = Bioavailability in dog at 0.1 mg/mL, iv by cassette assay; assay type: ADME, organism-based, Canis lupus familiaris; conditions: in vivo
[27] = Total clearance in dog at 0.1 mg/mL, iv by cassette assay; assay type: ADME, organism-based, Canis lupus familiaris; conditions: in vivo
[28] = Terminal half life in dog at 0.1 mg/mL, iv by cassette assay; assay type: ADME, organism-based, Canis lupus familiaris; conditions: in vivo
[29] = Total clearance in dog at 0.12 mg/kg, iv by cassette assay; assay type: ADME, organism-based, Canis lupus familiaris; parameters: dose 0.12 mg/kg, route intravenous; conditions: in vivo
[30] = Terminal half life in rat at 0.32 mg/kg, iv; assay type: ADME, organism-based; parameters: dose 0.32 mg/kg, route intravenous; conditions: in vivo
[31] = AUC (0 to 24 hrs) in rat at 1.0 mg/kg, po; assay type: ADME, organism-based; parameters: time < 24 hr, dose 1 mg/kg, route oral; conditions: plasma
[32] = Cmax in rat at 1.0 mg/kg, po; assay type: ADME, organism-based; parameters: dose 1 mg/kg, route oral; conditions: in vivo
[33] = Total clearance in rat at 0.32 mg/kg, iv; assay type: ADME, organism-based; parameters: dose 0.32 mg/kg, route intravenous; conditions: in vivo
[34] = Terminal half life in dog at 0.12 mg/kg, iv by cassette assay; assay type: ADME, organism-based, Canis lupus familiaris; parameters: dose 0.12 mg/kg, route intravenous; conditions: in vivo
[35] = Oral bioavailability in dog at 0.12 mg/kg by cassette assay; assay type: ADME, organism-based, Canis lupus familiaris; conditions: in vivo
[36] = Oral bioavailability in rat at 0.32 mg/kg; assay type: ADME, organism-based; conditions: in vivo
[37] = Oral bioavailability in rat at 0.83 mg/kg; assay type: ADME, organism-based; conditions: in vivo
[38] = Oral bioavailability in monkey at 0.83 mg/kg; assay type: ADME, organism-based, Macaca mulatta; conditions: rhesus monkey, in vivo
[39] = Oral bioavailability in dog at 0.83 mg/kg; assay type: ADME, organism-based, Canis lupus familiaris; conditions: in vivo
[40] = Terminal half life in rat at 0.51 mg/kg, iv by cassette assay; assay type: ADME, organism-based; parameters: dose 0.51 mg/kg, route intravenous; conditions: in vivo
[41] = Cmax in rat at 1.0 mg/kg, po by cassette assay; assay type: ADME, organism-based; parameters: dose 1 mg/kg, route oral; conditions: in vivo
[42] = AUC (0 to 24 hrs) in monkey at 1.0 mg/kg, po by cassette assay; assay type: ADME, organism-based, Macaca mulatta; parameters: time < 24 hr, dose 1 mg/kg, route oral; conditions: rhesus monkey, plasma
[43] = Total clearance in rat at 0.51 mg/kg, iv by cassette assay; assay type: ADME, organism-based; parameters: dose 0.51 mg/kg, route intravenous; conditions: in vivo
[44] = Oral bioavailability in rat at 0.51 mg/kg by cassette assay; assay type: ADME, organism-based; conditions: in vivo
[45] = tested on: Canis familiaris; assay: Ratio of Cmax for drug to Cmax for 3-[((7S)-7-{[(2R)-2-(3-Chlorophenyl)-2-hydroxyethyl]amino}-5,6,7,8-tetrahydro-2-naphthalenyl)oxy]benzoic acid hydrochloride in dog at 0.1 or 0.20 mg/kg, po by cassette dosing assay; assay type: ADME, organism-based, Canis lupus familiaris; parameters: dose 0.2 mg/kg, route oral; conditions: in vivo, 0.2 mg/kg
[46] = Cmax in monkey at 1.0 mg/kg, po by cassette assay; assay type: ADME, organism-based, Macaca mulatta; parameters: dose 1 mg/kg, route oral; conditions: rhesus monkey, in vivo
[47] = tested on: Canis familiaris; assay: Ratio of AUC for drug to AUC for 3-[((7S)-7-{[(2R)-2-(3-Chlorophenyl)-2-hydroxyethyl]amino}-5,6,7,8-tetrahydro-2-naphthalenyl)oxy]benzoic acid hydrochloride in dog at 0.1 or 0.20 mg/kg, po by cassette dosing assay; assay type: ADME, organism-based, Canis lupus familiaris; parameters: dose 0.2 mg/kg, route oral; conditions: in vivo, 0.2 mg/kg
[48] = AUC (0 to 24 hrs) in rat at 1.0 mg/kg, po by cassette assay; assay type: ADME, organism-based; parameters: time < 24 hr, dose 1 mg/kg, route oral; conditions: plasma

Sequence of Beta-1 adrenergic receptor (P08588 whole entry): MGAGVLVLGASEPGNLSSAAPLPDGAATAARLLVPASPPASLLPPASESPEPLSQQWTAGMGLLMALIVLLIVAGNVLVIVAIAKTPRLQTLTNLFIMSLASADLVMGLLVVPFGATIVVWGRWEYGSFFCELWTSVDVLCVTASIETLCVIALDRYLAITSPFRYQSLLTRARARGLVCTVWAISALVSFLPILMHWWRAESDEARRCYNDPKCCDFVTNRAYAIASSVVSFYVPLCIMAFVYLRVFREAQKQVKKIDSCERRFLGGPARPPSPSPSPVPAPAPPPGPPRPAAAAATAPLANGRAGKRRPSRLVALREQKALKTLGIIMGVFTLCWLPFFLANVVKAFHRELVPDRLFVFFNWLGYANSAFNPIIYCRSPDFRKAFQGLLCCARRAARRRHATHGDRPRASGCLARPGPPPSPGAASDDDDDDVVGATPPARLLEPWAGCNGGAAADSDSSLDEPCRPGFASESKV
Sequence of Beta-2 adrenergic receptor (P07550 whole entry): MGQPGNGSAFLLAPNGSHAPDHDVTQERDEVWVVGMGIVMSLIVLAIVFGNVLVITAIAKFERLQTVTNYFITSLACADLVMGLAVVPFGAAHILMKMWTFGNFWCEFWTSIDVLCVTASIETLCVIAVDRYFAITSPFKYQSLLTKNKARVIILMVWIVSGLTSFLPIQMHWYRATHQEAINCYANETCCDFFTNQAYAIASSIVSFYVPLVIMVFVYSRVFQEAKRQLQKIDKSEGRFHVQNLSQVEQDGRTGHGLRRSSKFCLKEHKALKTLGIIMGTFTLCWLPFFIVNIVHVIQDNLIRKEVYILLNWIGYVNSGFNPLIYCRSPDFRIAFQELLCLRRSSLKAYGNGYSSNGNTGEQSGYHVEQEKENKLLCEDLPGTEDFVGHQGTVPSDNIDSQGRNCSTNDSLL
Sequence of Beta-3 adrenergic receptor (Homo sapiens, UniProt P13945) (P13945 whole entry): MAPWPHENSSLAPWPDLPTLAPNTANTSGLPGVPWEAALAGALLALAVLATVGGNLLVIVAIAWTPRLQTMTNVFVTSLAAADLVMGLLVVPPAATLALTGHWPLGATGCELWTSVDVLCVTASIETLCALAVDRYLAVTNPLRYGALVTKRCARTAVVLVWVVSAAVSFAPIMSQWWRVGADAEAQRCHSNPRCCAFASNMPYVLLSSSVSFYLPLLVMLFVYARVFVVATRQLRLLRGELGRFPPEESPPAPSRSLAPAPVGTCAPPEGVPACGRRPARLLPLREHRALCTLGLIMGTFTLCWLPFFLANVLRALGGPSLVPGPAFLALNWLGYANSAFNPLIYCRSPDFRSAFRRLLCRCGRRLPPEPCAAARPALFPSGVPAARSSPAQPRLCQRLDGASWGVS
Sequence of Beta-3 adrenergic receptor (Canis lupus familiaris, UniProt O02662) (O02662 whole entry): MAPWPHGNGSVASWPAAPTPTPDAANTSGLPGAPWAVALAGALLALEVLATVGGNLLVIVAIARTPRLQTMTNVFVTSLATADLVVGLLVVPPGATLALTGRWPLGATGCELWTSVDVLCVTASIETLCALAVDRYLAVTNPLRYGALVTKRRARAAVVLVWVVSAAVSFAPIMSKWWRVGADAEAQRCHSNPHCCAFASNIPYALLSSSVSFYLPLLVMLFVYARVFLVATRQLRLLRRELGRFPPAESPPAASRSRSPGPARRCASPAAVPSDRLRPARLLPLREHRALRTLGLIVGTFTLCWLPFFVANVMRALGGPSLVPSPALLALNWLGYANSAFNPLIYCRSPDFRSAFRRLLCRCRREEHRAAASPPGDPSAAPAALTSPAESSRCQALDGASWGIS

Work on O=C(O)c1ccc(-c2ccc3c(c2)C[C@@H](NC[C@H](O)c2ccc(Cl)cc2)CC3)cc1 yielded an inhibition in vivo at 0.032 mg/kg [1] of 33%, a Ratio [2] of 0.71 and a Cmax [3] of 113 ng/mL. The EC50 [4] was 0.38 nM, the fraction unbound [5] was 0.03 and the EC50 [6] was over 1000 nM. The “Ratio AUC” value [7] was 1.25, the Cmax [8] was 91.2 ng/mL and the bioavailability [9] was over 95%. It also gave a clearance [10] of 11.4 mL/min/kg, a clearance [11] of 6.7 mL/min/kg and an AUC(0-t) at 24 h [12] of 722 ng·h/mL. It also gave a half-life [13] of 14.3 h, a bioavailability [14] of 81.7% and a half-life [15] of 13.6 h. For the same compound, the Selectivity ratio [16] was 65.8, the AUC(0-t) at 24 h [17] was 1980 ng·h/mL and the EC50 [18] was 917 nM. It also gave a Cmax [19] of 65 ng/mL, an EC50 [20] of 25 nM and an AUC(0-t) at 24 h [21] of 470 ng·h/mL. The Ratio EC50 [22] was 2410, the half-life [23] was 7.7 h and the bioavailability [24] was 63.4%. The clearance [25] was 1.7 mL/min/kg.
For O=C(O)COc1ccc(-c2ccc3c(c2)C[C@@H](NC[C@H](O)c2cccc(Cl)c2)CC3)cc1, the Cmax [3] was 21.8 ng/mL, the EC50 [4] was 5.8 nM and the EC50 [6] was over 1000 nM. For the same compound, the bioavailability [26] was 48%, the AUC(0-t) at 24 h [17] was 197 ng·h/mL and the clearance [27] was 8.3 mL/min/kg. It also gave an EC50 [18] of over 1000 nM, a half-life [28] of 1.9 h and a Ratio EC50 [22] of over 170.
Compound O=C(O)COc1ccc2c(c1)C[C@@H](NC[C@H](O)c1cccc(Cl)c1)CC2 has a Cmax [3] of 92.5 ng/mL, an EC50 [4] of 39 nM and a clearance [29] of 3 mL/min/kg. The EC50 [6] was over 10000 nM, the half-life [30] was 1.18 h and the AUC(0-t) at 24 h [31] was 177 ng·h/mL. It also gave a Cmax [32] of 28.1 ng/mL, an AUC(0-t) at 24 h [17] of 902 ng·h/mL and an EC50 [18] of 1500 nM. It also gave a clearance [33] of 52.6 mL/min/kg, a half-life [34] of 3.8 h and a bioavailability [35] of 83.2%. For the same compound, the bioavailability [36] was 60% and the Ratio EC50 [22] was 38.
Compound CCOC(=O)COc1ccc2c(c1)C[C@@H](NC[C@H](O)c1cccc(Cl)c1)CCC2 has an inhibition in vivo at 0.032 mg/kg [1] of 40.8%, a fraction unbound [5] of 0.06 and a bioavailability [37] of 29%. The bioavailability [38] was 35% and the bioavailability [39] was 73%.
With COc1ccc(Oc2ccc3c(c2)C[C@@H](NC[C@H](O)c2ccc(Cl)nc2)CC3)cc1C(=O)O the inhibition in vivo at 0.032 mg/kg [1] was 57%, the half-life [40] was 15.3 h and the Cmax [3] was 64.4 ng/mL. It also gave an EC50 [4] of 3.6 nM, a Cmax [41] of 164 ng/mL and a fraction unbound [5] of 0.1. The AUC(0-t) at 24 h [42] was 313 ng·h/mL, the EC50 [6] was over 1000 nM and the clearance [43] was 2.5 mL/min/kg. For the same compound, the bioavailability [44] was 27.3%, the bioavailability [9] was 76.8% and the Ratio [45] was 0.5. It also gave a clearance [11] of 15.7 mL/min/kg, a Cmax [46] of 59 ng/mL and a half-life [13] of 5.9 h. The bioavailability [14] was 28.8%, the Selectivity ratio [16] was 12.8 and the AUC(0-t) at 24 h [17] was 860 ng·h/mL. The EC50 [18] was over 1000 nM, the “Ratio AUC” value [47] was 0.48 and the EC50 [20] was 46 nM. The AUC(0-t) at 24 h [48] was 1940 ng·h/mL, the Ratio EC50 [22] was over 277 and the half-life [23] was 8.2 h. For the same compound, the clearance [25] was 3.1 mL/min/kg.
